PubChem BioAssay (NCI)
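Following 48 hours of exposure in 96-well plates, responses at five concentrations were used to interpolate endpoints linearly. At the GI50, growth is halved. TGI denotes the concentration required for complete inhibition of growth.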

Key:
Experiment in all cases: DTP human tumour cell line panel, 48 h
[1] = tested on: NCI/ADR-RES ovarian
[2] = tested on: RPMI-8226 leukemia
[3] = tested on: SNB-75 CNS
[4] = tested on: SF-268 CNS
[5] = tested on: MDA-MB-231 breast
[6] = tested on: UACC-257 melanoma
[7] = tested on: U251 CNS
[8] = tested on: MCF7 breast
[9] = tested on: SNB-19 CNS
[10] = tested on: HCC-2998 colon
[11] = tested on: HL-60(TB) leukemia
[12] = tested on: EKVX NSCLC
[13] = tested on: NCI-H226 lung
[14] = tested on: CAKI-1 renal
[15] = tested on: IGROV1 ovarian
[16] = tested on: NCI-H460 lung
[17] = tested on: HCT-15 colon
[18] = tested on: PC-3 prostate
[19] = tested on: SW-620 colon
[20] = tested on: HOP-92 NSCLC
[21] = tested on: KM12 colon
[22] = tested on: OVCAR-8 ovarian
[23] = tested on: 786-0 renal
[24] = tested on: HCT-116 colon
[25] = tested on: M14 melanoma
[26] = tested on: OVCAR-4 ovarian
[27] = tested on: K-562 leukemia
[28] = tested on: NCI-H522 lung
[29] = tested on: T-47D breast
[30] = tested on: HS 578T breast
[31] = tested on: SK-MEL-5 melanoma
[32] = tested on: MDA-MB-435
[33] = tested on: SK-MEL-28 melanoma
[34] = tested on: TK-10 renal
[35] = tested on: UO-31 renal
[36] = tested on: LOX IMVI melanoma
[37] = tested on: DU-145 prostate
[38] = tested on: SR leukemia
[39] = tested on: NCI-H23 lung
[40] = tested on: HT29 colon
[41] = tested on: HOP-62 NSCLC
[42] = tested on: MOLT-4 leukemia
[43] = tested on: SN12C renal
[44] = tested on: COLO 205 colon
[45] = tested on: CCRF-CEM leukemia
[46] = tested on: OVCAR-5 ovarian
[47] = tested on: MALME-3M melanoma
[48] = tested on: OVCAR-3 ovarian
[49] = tested on: SK-MEL-2 melanoma
[50] = tested on: SF-539 CNS
[51] = tested on: A498 renal
[52] = tested on: BT-549 breast
[53] = tested on: SK-OV-3 ovarian
[54] = tested on: A549 NSCLC
[55] = tested on: UACC-62 melanoma
[56] = tested on: RXF 393 renal
[57] = tested on: SF-295 CNS
[58] = tested on: ACHN renal

CCCC(=O)OCC1OC(n2cnc3c(=S)nc(N)[nH]c32)C(OC(=O)CCC)C1OC(=O)CCC (configuration not stated)
GI50 [1]: 5.41 µM
TGI [1]: > 100 µM
GI50 [2]: 3.97 µM
TGI [2]: 57.6 µM
GI50 [3]: 1.26 µM
TGI [3]: 12.2 µM
GI50 [4]: 4.1 µM
TGI [4]: > 100 µM
GI50 [5]: 4.42 µM
TGI [5]: > 100 µM
GI50 [6]: 8.61 µM
TGI [6]: > 100 µM
GI50 [7]: 13.3 µM
TGI [7]: > 100 µM
GI50 [8]: 2.79 µM
TGI [8]: 23.4 µM
GI50 [9]: 27 µM
TGI [9]: > 100 µM
GI50 [10]: 2.52 µM
TGI [10]: 23.6 µM
GI50 [11]: 5.27 µM
TGI [11]: > 57.6 µM
GI50 [12]: 5.36 µM
TGI [12]: > 100 µM
GI50 [13]: 5.47 µM
TGI [13]: > 100 µM
GI50 [14]: 2.4 µM
TGI [14]: > 47.5 µM
GI50 [15]: 5.93 µM
TGI [15]: 45.8 µM
GI50 [16]: 3.85 µM
TGI [16]: 19.3 µM
GI50 [17]: 7.6 µM
TGI [17]: > 100 µM
GI50 [18]: 3.42 µM
TGI [18]: > 100 µM
GI50 [19]: 5.68 µM
TGI [19]: > 77.7 µM
GI50 [20]: 1.4 µM
TGI [20]: > 48.3 µM
GI50 [21]: 3.76 µM
TGI [21]: 22 µM
GI50 [22]: 4.72 µM
TGI [22]: > 100 µM
GI50 [23]: 2.92 µM
TGI [23]: 14.7 µM
GI50 [24]: 2.72 µM
TGI [24]: 19.8 µM
GI50 [25]: 1.75 µM
TGI [25]: 9.32 µM
GI50 [26]: 2.73 µM
TGI [26]: 35.8 µM
GI50 [27]: 3.92 µM
TGI [27]: > 100 µM
GI50 [28]: 2.58 µM
TGI [28]: 14.2 µM
GI50 [29]: 3.37 µM
TGI [29]: 23 µM
GI50 [30]: 12.5 µM
TGI [30]: > 95.7 µM
GI50 [31]: 6.43 µM
TGI [31]: 19.5 µM
GI50 [32]: 3.41 µM
TGI [32]: 46.9 µM
GI50 [33]: 23.6 µM
TGI [33]: 98 µM
GI50 [34]: 1.91 µM
TGI [34]: 16.4 µM
GI50 [35]: 3.99 µM
TGI [35]: > 95.5 µM
GI50 [36]: 0.574 µM
TGI [36]: > 37 µM
GI50 [37]: 2.54 µM
TGI [37]: 51.3 µM
GI50 [38]: 1.03 µM
TGI [38]: 36.3 µM
GI50 [39]: 4.01 µM
TGI [39]: 33 µM
GI50 [40]: 5.63 µM
TGI [40]: 39.9 µM
GI50 [41]: 2.05 µM
TGI [41]: 15 µM
GI50 [42]: 3.93 µM
TGI [42]: > 85.3 µM
GI50 [43]: 3.81 µM
TGI [43]: > 100 µM
GI50 [44]: 4.73 µM
TGI [44]: 14.6 µM
GI50 [45]: 2.26 µM
TGI [45]: > 27.6 µM
GI50 [46]: 3.06 µM
TGI [46]: > 85.5 µM
GI50 [47]: 1.66 µM
TGI [47]: 36.5 µM
GI50 [48]: 2.08 µM
TGI [48]: 6.19 µM
GI50 [49]: 3.61 µM
TGI [49]: > 44.5 µM
GI50 [50]: 2.6 µM
TGI [50]: 18.4 µM
GI50 [51]: 2.98 µM
TGI [51]: > 35.9 µM
GI50 [52]: 2.55 µM
TGI [52]: 29.3 µM
GI50 [53]: 1.56 µM
TGI [53]: 9.94 µM
GI50 [54]: 25.2 µM
TGI [54]: > 100 µM
GI50 [55]: 2.81 µM
TGI [55]: 16 µM
GI50 [56]: 4.89 µM
TGI [56]: 24.2 µM
GI50 [57]: 0.906 µM
TGI [57]: > 25 µM
GI50 [58]: 4.96 µM
TGI [58]: > 68 µM

CC(=O)OC(C)(C)C1O[C@@]23OC1C[C@@H](C)[C@@H]2[C@@]1(C)CC[C@@]24C[C@@]25CC[C@H](OC2OCC(O)C(O)C2O)C(C)(C)[C@@H]5CCC4[C@]1(C)[C@H]3O (some centres not stated)
TGI [1]: 27.8 µM
TGI [2]: 29.1 µM
TGI [3]: 46.5 µM
TGI [4]: 41.3 µM
TGI [5]: 14.8 µM
TGI [6]: 32.9 µM
TGI [7]: 22.1 µM
TGI [8]: 11.9 µM
TGI [9]: 18.6 µM
TGI [10]: 25.7 µM
TGI [11]: 5.48 µM
TGI [12]: 18.8 µM
TGI [13]: 19.5 µM
TGI [14]: 20.4 µM
TGI [15]: 29.1 µM
TGI [16]: 32.2 µM
TGI [17]: 10.8 µM
TGI [18]: 17.1 µM
TGI [19]: > 100 µM
TGI [20]: 31.6 µM
TGI [21]: 13.8 µM
TGI [22]: 64.8 µM
TGI [23]: 18.9 µM
TGI [24]: 19.1 µM
TGI [25]: 24.2 µM
TGI [26]: 23.8 µM
TGI [27]: > 93.2 µM
TGI [28]: 25.3 µM
TGI [29]: 79.4 µM
TGI [30]: 45.6 µM
TGI [31]: 23.3 µM
TGI [32]: 32.3 µM
TGI [33]: 29.8 µM
TGI [34]: 24.5 µM
TGI [35]: 29.7 µM
TGI [36]: 31.4 µM
TGI [37]: 15.4 µM
TGI [38]: 15.2 µM
TGI [39]: 15.7 µM
TGI [40]: 24.7 µM
TGI [41]: 37.7 µM
TGI [42]: 21.5 µM
TGI [43]: 10.7 µM
TGI [44]: 25.1 µM
TGI [45]: > 38.3 µM
TGI [46]: 31.8 µM
TGI [47]: 42.1 µM
TGI [48]: 13.4 µM
TGI [49]: 39 µM
TGI [50]: 12 µM
TGI [51]: 18.2 µM
TGI [52]: 40.6 µM
TGI [53]: 28.6 µM
TGI [54]: 21.4 µM
TGI [55]: 27.7 µM
TGI [56]: 30.3 µM
TGI [57]: 24.7 µM
TGI [58]: 17 µM

O=C1CCCC/C1=C(\Br)I
TGI [1]: 41.1 µM
TGI [2]: 16.5 µM
TGI [3]: 34.8 µM
TGI [4]: 14.8 µM
TGI [5]: 32.5 µM
TGI [6]: 30.5 µM
TGI [7]: 34 µM
TGI [8]: 32.9 µM
TGI [9]: 47.5 µM
TGI [10]: 9.79 µM
TGI [11]: 5.71 µM
TGI [12]: 34.4 µM
TGI [13]: 43.7 µM
TGI [14]: 24.9 µM
TGI [15]: 40.8 µM
TGI [16]: 33 µM
TGI [17]: 7.97 µM
TGI [18]: 32.9 µM
TGI [19]: 10.4 µM
TGI [20]: 31.8 µM
TGI [21]: 34 µM
TGI [22]: 28.1 µM
TGI [23]: 37.5 µM
TGI [24]: 25 µM
TGI [25]: 20.1 µM
TGI [26]: 29.3 µM
TGI [27]: 10.3 µM
TGI [28]: 3.48 µM
TGI [29]: 15.2 µM
TGI [30]: > 100 µM
TGI [31]: 42.1 µM
TGI [32]: 29.4 µM
TGI [33]: 29.9 µM
TGI [34]: 18.4 µM
TGI [35]: 31.5 µM
TGI [36]: 32.4 µM
TGI [37]: 26 µM
TGI [38]: 9.49 µM
TGI [39]: 16.8 µM
TGI [40]: 27.4 µM
TGI [41]: 36.7 µM
TGI [42]: 7.17 µM
TGI [43]: 30.8 µM
TGI [44]: 28.8 µM
TGI [45]: 5.68 µM
TGI [46]: 33.2 µM
TGI [47]: 12.1 µM
TGI [48]: 32.1 µM
TGI [49]: 38.6 µM
TGI [50]: 41.2 µM
TGI [51]: 35.7 µM
TGI [52]: 31.6 µM
TGI [53]: 49.2 µM
TGI [54]: 58.6 µM
TGI [55]: 38.3 µM
TGI [56]: 29.5 µM
TGI [57]: 37.7 µM
TGI [58]: 29.6 µM
